# Test results published in US10342790B2, “Use of ceranib-2 in the treatment of lung cancer” (ANADOLU UNIVERSITESI REKTORLUGU, priority 2017, dated 2019).
# Columns and labels:
# synergistic tumor model = conditions: 20-50 mg/kg; cited from earlier work
# 5RP7 cells = test: IC50 in 5RP7 cells (cytotoxicity); type: cell-based; conditions: read-out: IC50 concentration in 5RP7 cells
# [1] = test system: A549 human lung adeno-carcinoma cells; test: MTT cyto-toxicity test, A549 cells; type: cell-based; conditions: 24 hours incubation, read-out: IC50 concentration in A549 lung cancer cells
# Description: A549 human lung adeno-carcinoma cells have been implanted to the cell culture plates with 96 wells such that there are 2×10^3 cells per well. The cells implanted to the plate have been incubated at 37° C. and in a medium of 5% carbon dioxide. A549 cells have been incubated for 24 hours in the concentration range of 5-65 μM with synthesized ceranib-2. At the end of the duration, 20 μL MTT dye (5 mg/mL) has been added to each well and it has been incubated for 2 hours more at 37° C. After the incubation, the liquid part in each well on the plate is discharged and 200 μL DMSO has been added for dissolving the formazan salts formed by viable cells and it has been waited for 10 minutes at room temperature. The color change occurring has been read at wavelength of 570 nm on the ELx808-IU (Bio-Tek, USA) plate reader. The experiment has been repeated 3 times. Separate viability values have been calculated according to the control group for each dose.
# MCF-7 cells = test: Electron micrographs of MCF-7 cells; type: cell-based, human; conditions: MCF-7 cells treated for 24 hours
# Description: In FIG. 2, electron micrographs of the MCF-7 cells are seen.
# FIG. 2: Electron transmission micrographs of MCF-7 cells.
# NIH/3T3 cells = test: IC50 in NIH/3T3 cells (cytotoxicity); type: cell-based; conditions: read-out: IC50 concentration in NIH/3T3 cells
# [2] = test system: MCF-7 human breast cancer cells; test: IC50 in MCF-7 cells (cytotoxicity); type: cell-based; conditions: read-out: IC50 concentration in MCF-7 human breast cancer cells
# [3] = test system: A549 lung cancer cell line; test: Microscopy of structural changes in A549 cells; type: cell-based, human; conditions: A549 cells treated for 24 hours
# Description: In FIG. 3, the confocal microscope images of the study made on A549 type cells which is a lung cancer cell line are given.
# FIG. 3: Electron transmission microscope images showing the structural changes in A549 cells.
# MCF-7 cell line = test: Confocal microscopy of MCF-7 cells; type: cell-based, human; conditions: MCF-7 cells treated for 24 hours, acridine orange and phalloidine
# Description: In FIG. 1, the confocal microscopy images are provided belonging to the study made on the MCF-7 cell line. In the control cells, a tight and normal cell and cell nucleus structure are seen (FIG. 1A).
# FIG. 1: Confocal electron transmission microscope image of MCF-7 cells painted with acridine orange and phalloidine.
# [4] = value mentioned in the sources; read-out: IC50 concentration in cell-based experiments (in the sources); cited from earlier work
compound,measurement,setting,value
"COc1ccc(C=CC(=O)c2c(-c3ccccc3)c3ccccc3[nH]c2=O)cc1 [ceranib-2, 3-[3-(4-methoxyphenyl)-1-oxo-2-prpen-1-yl]-4-phenyl-2(1H)-quinolinone]",Toxicity in vivo,synergistic tumor model,without leading to toxicity
same,Tumor growth,synergistic tumor model,inhibits tumor growth
same,IC50,5RP7 cells,3 µM
same,IC50,[1],14 µM
same,"Cell ultrastructure, electron micrographs (FIG. 2)",MCF-7 cells,the nucleus membrane is lost and the mitochondria is deformed
same,IC50,NIH/3T3 cells,5 µM
same,IC50,[2],13 µM
same,"Structural changes in cells, microscopy (FIG. 3)",[3],"the cell nucleus is fragmentized, the cell shape is transformed from oval to round and deformations begin in the cell membrane, lipid drops are formed inside the cell, DNA fragmentizing occurs and holes occur inside the cell"
same,"Cell morphology, confocal microscopy (FIG. 1)",MCF-7 cell line,"condensation is observed in the chromatin, holes are observed in the cell structure, shrunken cell nucleus is observed and fragmentizing cells are observed"
same,IC50,[4],~28 µM
